Data: PubChem BioAssay AID256 (DTP/NCI, 2004)
“And” between values parts separate entries of the source, which are not always exact repeats. Identical values can stand only once. Inconclusive results and toxic doses are left out. The calls were made as follows: active = survival T/C of 150% or more; inactive = T/C below 125% in these data.

System: CD2F1 mice, L1210 leukemia ip, survival T/C
Assay: NCI In Vivo Anticancer Drug Screen. Data for tumor model L1210 Leukemia (intraperitoneal) in CD2F1 (CDF1) mice
Conditions: endpoint: mean survival time, higher = longer survival
Outline: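 Tumor-bearing mice (transplanted tumor) were split into treated and vehicle control groups, and the measured endpoint of each treated group was divided by that of its vehicle controls.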

[1] = dose: 50.0 mg/kg/injection, schedule: Q01DX009 (ip), vehicle: saline
[2] = dose: 100.0 mg/kg/injection, schedule: Q01DX001 (ip), vehicle: saline
[3] = dose: 100.0 mg/kg/injection, schedule: Q04DX003 (ip), vehicle: saline
[4] = dose: 200.0 mg/kg/injection, schedule: Q01DX001 (ip), vehicle: saline
[5] = dose: 200.0 mg/kg/injection, schedule: Q04DX003 (ip), vehicle: saline
[6] = dose: 100.0 mg/kg/injection, schedule: Q01DX001 (ip), vehicle: saline with Tween-80
[7] = dose: 400.0 mg/kg/injection, schedule: Q01DX001 (ip), vehicle: saline with Tween-80
[8] = dose: 100.0 mg/kg/injection, schedule: Q04DX003 (ip), vehicle: saline with Tween-80
[9] = dose: 100.0 mg/kg/injection, schedule: Q01DX009 (ip), vehicle: saline with Tween-80
[10] = dose: 200.0 mg/kg/injection, schedule: Q01DX009 (ip), vehicle: saline with Tween-80
[11] = dose: 200.0 mg/kg/injection, schedule: Q04DX003 (ip), vehicle: saline with Tween-80
[12] = dose: 400.0 mg/kg/injection, schedule: Q04DX003 (ip), vehicle: saline with Tween-80
[13] = dose: 200.0 mg/kg/injection, schedule: Q01DX001 (ip), vehicle: saline with Tween-80
[14] = dose: 400.0 mg/kg/injection, schedule: Q01DX009 (ip), vehicle: saline with Tween-80
[15] = dose: 400.0 mg/kg/injection, schedule: Q01DX001 (ip), vehicle: saline

Measured: T/C

COS(=O)(=O)C=C(c1ccccc1)c1ccccc1
inactive: dose: 75.0 mg/kg/injection, schedule: Q01DX009 (ip), vehicle: saline 103 % of control | dose: 75.0 mg/kg/injection, schedule: Q04DX003 (ip), vehicle: saline 91 % of control | dose: 150.0 mg/kg/injection, schedule: Q01DX009 (ip), vehicle: saline 100 % of control | dose: 150.0 mg/kg/injection, schedule: Q04DX003 (ip), vehicle: saline 94 % of control | dose: 300.0 mg/kg/injection, schedule: Q01DX009 (ip), vehicle: saline 100 % of control | dose: 300.0 mg/kg/injection, schedule: Q04DX003 (ip), vehicle: saline 91 % of control

Oc1ccc(Cl)cc1Cn1ccnc1
inactive: dose: 50.0 mg/kg/injection, schedule: Q01DX001 (ip), vehicle: saline 111 % of control | [1] 104 % of control | dose: 50.0 mg/kg/injection, schedule: Q04DX003 (ip), vehicle: saline 106 % of control | [2] 100 % of control | dose: 100.0 mg/kg/injection, schedule: Q01DX009 (ip), vehicle: saline 95 % of control and 110 % of control | dose: 100.0 mg/kg/injection, schedule: Q04DX002 (ip), vehicle: saline 115 % of control and 101 % of control | [3] 101 % of control | [4] 104 % of control | dose: 200.0 mg/kg/injection, schedule: Q01DX009 (ip), vehicle: saline 93 % of control and 109 % of control | dose: 200.0 mg/kg/injection, schedule: Q04DX002 (ip), vehicle: saline 103 % of control and 112 % of control | [5] 113 % of control

OC1C=C(c2ccccc2)C(c2ccccc2)C(c2ccccc2)C1 (configuration not stated)
inactive: [6] 89 % of control | [7] 101 % of control

CN(C)CCNC(=O)C(c1ccccc1)c1ccccc1
inactive: [8] 104 % of control

CC12CCCCC1=CC(=O)CC2 (configuration not stated)
inactive: [9] 97 % of control | dose: 100.0 mg/kg/injection, schedule: Q04DX002 (ip), vehicle: saline with Tween-80 96 % of control | [10] 102 % of control | dose: 200.0 mg/kg/injection, schedule: Q04DX002 (ip), vehicle: saline with Tween-80 112 % of control | dose: 400.0 mg/kg/injection, schedule: Q04DX002 (ip), vehicle: saline with Tween-80 104 % of control

ClC(Cl)(Cl)c1nc(C(Cl)(Cl)Cl)nc(C(Cl)(Cl)Cl)n1
inactive: dose: 100.0 mg/kg/injection, schedule: Q04DX003 (ip), vehicle: Klucel (hydroxypropylcellulose) (HPC) 97 % of control | dose: 200.0 mg/kg/injection, schedule: Q04DX003 (ip), vehicle: Klucel (hydroxypropylcellulose) (HPC) 87 % of control | dose: 400.0 mg/kg/injection, schedule: Q04DX003 (ip), vehicle: Klucel (hydroxypropylcellulose) (HPC) 91 % of control

O=C(Cc1ccccn1)NCC(O)c1ccccc1 (configuration not stated)
inactive: [3] 89 % of control | [5] 102 % of control | dose: 400.0 mg/kg/injection, schedule: Q04DX003 (ip), vehicle: saline 100 % of control

O=C(Nc1ccc(F)cc1)Nc1cccc2ccccc12
inactive: [8] 96 % of control | [11] 96 % of control | [12] 111 % of control

O=C1C(Cl)=C(Nc2nc3ccccc3s2)C(=O)c2ccccc21
inactive: dose: 25.0 mg/kg/injection, schedule: Q01DX001 (ip), vehicle: Klucel (hydroxypropylcellulose) (HPC) 102 % of control | dose: 50.0 mg/kg/injection, schedule: Q01DX001 (ip), vehicle: Klucel (hydroxypropylcellulose) (HPC) 96 % of control | dose: 100.0 mg/kg/injection, schedule: Q01DX001 (ip), vehicle: Klucel (hydroxypropylcellulose) (HPC) 98 % of control

Cc1ccc(S)cc1
inactive: [6] 98 % of control | dose: 100.0 mg/kg/injection, schedule: Q04DX003 (ip), vehicle: saline sonified 100 % of control | [13] 90 % of control | dose: 200.0 mg/kg/injection, schedule: Q04DX003 (ip), vehicle: saline sonified 95 % of control | [7] 90 % of control | dose: 400.0 mg/kg/injection, schedule: Q04DX003 (ip), vehicle: saline sonified 95 % of control

CCSC(C(O)C(O)C(O)C(O)CO)n1cnc2c(SC)ncnc21 (configuration not stated)
inactive: dose: 25.0 mg/kg/injection, schedule: Q01DX005 (ip), vehicle: water 89 % of control | dose: 50.0 mg/kg/injection, schedule: Q01DX005 (ip), vehicle: water 94 % of control | dose: 100.0 mg/kg/injection, schedule: Q01DX005 (ip), vehicle: water 94 % of control | dose: 200.0 mg/kg/injection, schedule: Q01DX005 (ip), vehicle: water 94 % of control

ClCC(Cl)CN1CCCCC1 (configuration not stated)
inactive: dose: 25.0 mg/kg/injection, schedule: Q01DX009 (ip), vehicle: saline 100 % of control | [1] 103 % of control

CC/C=C\CC1OCCO1
inactive: dose: 50.0 mg/kg/injection, schedule: Q01DX009 (ip), vehicle: saline with Tween-80 95 % of control | [9] 92 % of control | [10] 95 % of control

C/C=C/C=C/C(=O)c1cc(C#N)c(OC)cc1O
inactive: [6] 88 % of control | [13] 88 % of control | [7] 89 % of control

CCOC(=O)c1ccc(NC(=O)C(Br)C(Br)C(=O)O)cc1 (configuration not stated)
inactive: [6] 110 % of control | [13] 110 % of control | [7] 108 % of control

CN1CCN(CCCN2CC3CC=CCC3C2)CC1 (configuration not stated)
inactive: [3] 105 % of control | [5] 100 % of control

CC(=O)Nc1ncc([N+](=O)[O-])s1
inactive: dose: 50.0 mg/kg/injection, schedule: Q04DX003 (ip), vehicle: saline with Tween-80 100 % of control | [8] 105 % of control | [11] 100 % of control

COC(=O)C(Cl)(Cl)c1nc(NC(C)=O)[nH]c(=O)c1Cl
inactive: [8] 95 % of control | [11] 98 % of control | [12] 91 % of control

O=P(Oc1ccccc1)(Oc1ccccc1)C(Nc1ccccc1)c1ccccc1 (configuration not stated)
inactive: [9] 88 % of control | [10] 97 % of control | [14] 89 % of control

O=C1CSC(=S)N1c1cccc(C(F)(F)F)c1
inactive: [9] 97 % of control | [10] 112 % of control | [14] 101 % of control

CN(C)B(B(N(C)C)N(C)C)N(C)C
inactive: [2] 105 % of control | [4] 97 % of control | [15] 101 % of control

CC(=O)OCC(OC(C)=O)C(OC(C)=O)C(/C=N\Nc1ccccc1)=N/Nc1ccccc1 (configuration not stated)
inactive: dose: 37.5 mg/kg/injection, schedule: Q01DX001 (ip), vehicle: saline with Tween-80 92 % of control | dose: 75.0 mg/kg/injection, schedule: Q01DX001 (ip), vehicle: saline with Tween-80 96 % of control | dose: 150.0 mg/kg/injection, schedule: Q01DX001 (ip), vehicle: saline with Tween-80 91 % of control

O=C(O)CN(CC(=O)O)Cc1ccccc1
inactive: [2] 103 % of control | [4] 103 % of control | [15] 103 % of control

Cc1ccc(S(=O)(=O)N2CCn3ncc(C#N)c32)cc1
inactive: dose: 12.5 mg/kg/injection, schedule: Q01DX009 (ip), vehicle: Klucel (hydroxypropylcellulose) (HPC) 98 % of control | dose: 25.0 mg/kg/injection, schedule: Q01DX009 (ip), vehicle: Klucel (hydroxypropylcellulose) (HPC) 95 % of control | dose: 50.0 mg/kg/injection, schedule: Q01DX009 (ip), vehicle: Klucel (hydroxypropylcellulose) (HPC) 97 % of control | dose: 100.0 mg/kg/injection, schedule: Q01DX009 (ip), vehicle: Klucel (hydroxypropylcellulose) (HPC) 87 % of control | dose: 200.0 mg/kg/injection, schedule: Q01DX009 (ip), vehicle: Klucel (hydroxypropylcellulose) (HPC) 89 % of control | dose: 400.0 mg/kg/injection, schedule: Q01DX009 (ip), vehicle: Klucel (hydroxypropylcellulose) (HPC) 95 % of control
